Test [1] deals with T1, Lysocardiolipin acyltransferase 1 (Homo sapiens) (UniProt Q6UWP7).
T1 sequence (whole entry): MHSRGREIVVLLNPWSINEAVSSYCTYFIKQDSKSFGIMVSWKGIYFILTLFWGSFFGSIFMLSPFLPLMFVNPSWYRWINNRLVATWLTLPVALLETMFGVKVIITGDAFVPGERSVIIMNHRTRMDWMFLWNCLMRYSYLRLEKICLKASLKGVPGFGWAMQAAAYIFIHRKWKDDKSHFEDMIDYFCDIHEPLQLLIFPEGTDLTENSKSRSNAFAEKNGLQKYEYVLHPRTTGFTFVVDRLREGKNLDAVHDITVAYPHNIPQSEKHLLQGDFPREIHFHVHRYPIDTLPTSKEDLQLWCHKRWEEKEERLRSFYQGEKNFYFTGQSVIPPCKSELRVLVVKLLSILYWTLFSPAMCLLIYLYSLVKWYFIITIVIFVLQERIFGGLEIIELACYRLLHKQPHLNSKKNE
Description: Substrate activity at recombinant human ALCAT1 expressed in HEK293 cells using oleoyl-CoA as substrate assessed as biotinylated (BTN)-di-oleoyl LPG product formation by Rapidfire-triple quad mass spectrometry analysis. As to conditions: filed as modulator, time <= 64.0 min, TDE = time-dependent effect.

The target of test [2] is T1, Lysocardiolipin acyltransferase 1 (Homo sapiens). Description: Substrate activity at recombinant human ALCAT1 expressed in HEK293 cells using oleoyl-CoA as substrate assessed as acylated product formation by Rapidfire-triple quad mass spectrometry analysis. The settings on record: filed as modulator.

SMILES strings stand for the structures. Active and inactive are the calls of the source. The rule behind the calls is not given here.

Regarding `O=C1N[C@H]2[C@H](CS[C@H]2CCCCC(=O)OCCCCCCC/C=C\CCCCCCCC(=O)OC[C@@H](O)COP(=O)(O)OCC(O)CO)N1` (some centres not stated), the Activity result in test [1] is “Tde”. `CCCCCCCCCCCCCCCC(=O)OC[C@H](O)COP(=O)(O)OC[C@H](O)CO`: in test [2], the outcome was Active.

Values taken from ChEMBL document CHEMBL5113444, “Synthesis of biotinylated-LPG as a chemical biology tool enabling discovery of ALCAT1 modulators” (Bioorg Med Chem Lett, 2022).
